# Results from patent US8022178B2, “Modified self-assembling peptides” (Massachusetts Institute of Technology, priority 2006, dated 2011).
# What was measured:
# [1] = system: Mouse preosteoblast cell line (MC3T3-E1); assay: Osteocalcin secreted in culture medium (EIA); type: cell-based; details: FIG. 17 compared to FIG. 6; versus PRGmx or PRFmx
# Protocol: (§1) Mouse preosteoblast cell line (MC3T3-E1) was used to compare the proliferation and differentiation effects of the motifs with RAD16-1 and Collagen-I hydrogels as controls. The proliferation was measured by DNA contents and the differentiation effects were evaluated using Alkaline phosphatase (ALP) activity and secreted Osteocalcin. Alkaline phosphatase is known to be differentiation marker of osteoblast in earlier stage. Secreted Osteocalcin is known to be differentiation marker of osteoblast in later stage and its activity is correlated with the bone mineralization.
# (§2) 1% RAD16-I solution [self-assembling peptide solution] was obtained as RAD16-I (Puramatrix™, 3DM Inc./BD Bioscience). The functionalized peptides of Table 2 were dissolved in water at final concentration of 1% (v/w). The functionalized peptide solutions were then mixed with 1% RAD16-I solution at a ratio of 1:1 (Table 4). Each peptide solution was loaded in the Culture plate inserts (10 mm diameter, Millicell-CM, Millipore). […]
# (§3) Cell proliferation was evaluated using DNA contents in the hydrogel using PicoGreen dsDNA Kits (Molecular Probes). ALP activity was quantitatively measured from cell lysis using Alkaline Phosphatase Fluorescence Assay Kit (Sigma). Osteocalcin was measured from cell culture medium using Mouse Osteocalcin EIA Kit (Biomedical Technologies Inc.).
# [2] = system: Mouse preosteoblast cell line (MC3T3-E1); assay: Alkaline phosphatase (ALP) activity of MC3T3-E1 on hydrogels; type: cell-based; details: 1% FHR hydrogel; FIGS. 14-16A/B compared to FIGS. 3-4
# Protocol: as §1, §2, §3
# [3] = system: adipose derived stem cells (ADSC); assay: Growth factors secreted by ADSC into the culture medium (ELISA); type: cell-based, human; details: from 1 day up to 7 days of culture, control tissue culture plate, FIG. 35
# Protocol: The peptide solutions shown in Table 25 were loaded in the culture inserts (10 mm diameter, Millicell-CM, Millipore) and gels were formed using cell culture medium (DMEM-F12+10% FBS, Gibco). ADSC were plated at 4×10^4 cells on the inserts and cultured up to 7 Days.
# The growth factors secreted into the culture medium were also evaluated using ELISA method (FIGS. 35A-35B). The growth factors secreted from stem cell are considered to be main source of the cell therapy by reducing apotosis and increasing angiogenesis. Especially HGF and VEGF are considered to key components for reducing apotosis and increasing angiogenesis. The medium of ADSC cultured on tissue culture plate was used as control (shown as TCP). […] For VEGF, all peptide matrix had increase of VEGF secretion in 1 day culture medium.
# [4] = system: bone defects of 4 mm diameter in rat skull; assay: Rat skull bone defect filled with hydrogel, bone formation evaluation; type: in vivo; details: grade 1 more than 80%, 2 more than 50%, 3 weak in X-ray
# Protocol: The effects of the functionalized peptide were evaluated in vivo in rats. 6 weeks male rat sculls were used for this evaluation (two samples for each experiment).
# The rats in this study underwent creation of two bone defects of 4 mm diameter, bilaterally in each skull. Some of the defects were left empty as controls.
# The peptide solution was directly injected to the defects without cells. The peptide solution formed a hydrogel immediately after injection by the salt in the body fluid (e.g., blood, lymph fluid, and the like).
# Bone Formation Evaluation: All animals from each group were euthanized 2 and 4 weeks later. The X-ray image of the skulls were taken. The skulls were collected, hemisected, and fixed in formalin. The defects were then trimmed, decalcified, embedded in paraffin, stained by HE staining method, and evaluated by a Veterinary pathologist, who characterized by histomorphometry the type of tissue contained within the defects. The degree of bone regeneration is graded as Complete recovery, 1 (more than 80%), 2 (more than 50%), or 3 (weak in X-ray).
# [5] = system: neurons; details: neurons grown on surface (Holmes 2000); cited from earlier work
# [6] = system: chick Chorioallantoic Membrane; assay: Chorioallantoic Membrane (CAM) assay of angiogenesis; type: in vivo, chicken; details: hydrogel placed Day 8, histology Day 12, FIG. 30
# Protocol: In vivo study of angiogenesis was performed using Chorioallantoic Membrane (CAM) assay. At Day 8 of fertilized chicken egg incubation, hydrogels of 10 mm diameter with 1 mm thickness were transferred to chick Chorioallantoic Membrane. The hydrogels were selected from Table 19 and gels were formed before the transfer. On Day 12, CAMs were collected for histology. The angiogenesis inside and below the hydrogel were evaluated by histological cross section.
Substance,effect to promote differentiation (osteocalcin) [1],promotion of pre-osteoblast differentiation [2],HGF secreted into the culture medium [3],Average score (degree of bone regeneration) ([4]; four weeks),Average score (degree of bone regeneration) ([4]; two weeks),neurite outgrowth and synapse formation [5],angiogenesis inside and below the hydrogel [6]
Ac(RADA)4GGFHRRIKA-CONH2 (Ac-RADARADARADARADAGGFHRRIKA-NH2) [FHR = 1% solution; FHR-2P = 2% solution],not so strong,some function to promote differentiation,,,,,
Ac(RADA)4-CONH2,,,significant increase,1.0,3.0,able to serve as a substrate for neurite outgrowth and formation of functionally active synapses,no angiogenesis both inside and below the hydrogel
